Assay results published in patent EP0346760A2, “Derivatives of nigericine, methods for their preparation, compositions containing them and their use” (priority 1988, dated 1989).
≈ marks a conversion by molar mass, not a printed value.

tested on: Staph. aureus (285); test: Agar dilution test (Lorian), antibacterial activity; type: cell-based; conditions: Staphylococcus aureus
Protocol: (§1) Die antibakterielle Wirksamkeit der erfindungsgemäßen Verbindungen wurde im Agar-Verdünnungstest nach Lorian (Antibiotics in Laboratory Medicine, Williams & Wilkins, Baltimore/London, 1980) bestimmt. Dabei wurden die Präparate in einer geometrischen Verdünnungsreihe mit dem Faktor 2 in Müller Hinton Agar verdünnt. Eine Petrischale enthielt nur Müller Hinton Agar und diente zur Kontrolle des Bakterienwachstums. Die Petrischalen wurden dann mit einem Denley-Multipoint-Inokulator, welcher 0,6 µl einer 1 : 100 verdünnten 18-Stunden-Kultur der Testbakterien übertrug, mit den entsprechenden Testbakterien beimpft. Nach 16 bis 18 Stunden Inkubation bei 37°C wurden die Petrischalen makroskopisch auf Bakterienwachstum untersucht.
(§2) Die niedrigste Konzentration der erfindungsgemäßen Verbindungen, welche das Bakterienwachstum noch vollständig verhinderte, wurde als MIC (Minimum Inhibitory Concentration) angenommen.
(§3) In Tabelle 3 ist die Wirkung (Angabe des MIC in µg/ml) von verschiedenen erfindungsgemäßen Verbindungen gegen folgende Bakterien aufgeführt: Staph. aureus (SG 511), Staph. aureus (285), Staph. aureus (503), Strept. pyogenes (308 A), Strept. pyogenes (77 A), Strept. faecium (D). Tabelle 3

Compound | MIC [µg/mL]
COC1CC(CC2CCC(C)C(C(C)C(=O)O)O2)OC2(OC(C)(C3CCC(C)(C4OC(C5OC(O)(CSC#N)C(C)CC5C)CC4C)O3)CC2C)C1C (stereo not shown) [Beispiel 4] | 0.78 (≈ 1.02 µM)
COC1CC(CC2CCC(C)C(C(C)C(=O)O)O2)OC2(OC(C)(C3CCC(C)(C4OC(C5OC(O)(CO[Si](c6ccccc6)(c6ccccc6)C(C)(C)C)C(C)CC5C)CC4C)O3)CC2C)C1C (stereo not shown) [Beispiel 9] | 0.78 (≈ 0.81 µM)

same assay, conditions: Staphylococcus aureus; Staph. aureus (285); Müller Hinton Agar, 16 to 18 h at 37°C; read-out: MIC

Compound | MIC [µg/mL]
COC1CC(CC2CCC(C)C(C(C)C(=O)O)O2)OC2(OC(C)(C3CCC(C)(C4OC(C5OC(O)(CCl)C(C)CC5C)CC4C)O3)CC2C)C1C (stereo not shown) [Beispiel 2] | 0.098 (≈ 0.132 µM)

tested on: Staph. aureus (503); test: as above; type: cell-based; conditions: Staphylococcus aureus
Protocol: as §1, §2, §3

Compound | MIC [µg/mL]
COC1CC(CC2CCC(C)C(C(C)C(=O)O)O2)OC2(OC(C)(C3CCC(C)(C4OC(C5OC(O)(CSC#N)C(C)CC5C)CC4C)O3)CC2C)C1C (stereo not shown) [Beispiel 4] | 0.78 (≈ 1.02 µM)
COC1CC(CC2CCC(C)C(C(C)C(=O)O)O2)OC2(OC(C)(C3CCC(C)(C4OC(C5OC(O)(CO[Si](c6ccccc6)(c6ccccc6)C(C)(C)C)C(C)CC5C)CC4C)O3)CC2C)C1C (stereo not shown) [Beispiel 9] | 0.78 (≈ 0.81 µM)

same assay, conditions: Staphylococcus aureus; Staph. aureus (503); Müller Hinton Agar, 16 to 18 h at 37°C; read-out: MIC

Compound | MIC [µg/mL]
COC1CC(CC2CCC(C)C(C(C)C(=O)O)O2)OC2(OC(C)(C3CCC(C)(C4OC(C5OC(O)(CCl)C(C)CC5C)CC4C)O3)CC2C)C1C (stereo not shown) [Beispiel 2] | 0.025 (≈ 0.0336 µM)

tested on: Staph. aureus (SG 511); test: as above; type: cell-based; conditions: Staphylococcus aureus
Protocol: as §1, §2, §3

Compound | MIC [µg/mL]
COC1CC(CC2CCC(C)C(C(C)C(=O)O)O2)OC2(OC(C)(C3CCC(C)(C4OC(C5OC(O)(CO[Si](c6ccccc6)(c6ccccc6)C(C)(C)C)C(C)CC5C)CC4C)O3)CC2C)C1C (stereo not shown) [Beispiel 9] | 0.78 (≈ 0.81 µM)

same assay, conditions: Staphylococcus aureus; Staph. aureus (SG 511); Müller Hinton Agar, 16 to 18 h at 37°C; lowest concentration that completely prevents growth; read-out: MIC

Compound | MIC [µg/mL]
COC1CC(CC2CCC(C)C(C(C)C(=O)O)O2)OC2(OC(C)(C3CCC(C)(C4OC(C5OC(O)(CCl)C(C)CC5C)CC4C)O3)CC2C)C1C (stereo not shown) [Beispiel 2] | 0.098 (≈ 0.132 µM)

tested on: Strept. faecium (D); test: as above; type: cell-based; conditions: Enterococcus faecium
Protocol: as §1, §2, §3

Compound | MIC [µg/mL]
COC1CC(CC2CCC(C)C(C(C)C(=O)O)O2)OC2(OC(C)(C3CCC(C)(C4OC(C5OC(O)(CSC#N)C(C)CC5C)CC4C)O3)CC2C)C1C (stereo not shown) [Beispiel 4] | 0.78 (≈ 1.02 µM)
COC1CC(CC2CCC(C)C(C(C)C(=O)O)O2)OC2(OC(C)(C3CCC(C)(C4OC(C5OC(O)(CO[Si](c6ccccc6)(c6ccccc6)C(C)(C)C)C(C)CC5C)CC4C)O3)CC2C)C1C (stereo not shown) [Beispiel 9] | 0.7 (≈ 0.727 µM)

same assay, conditions: Enterococcus faecium; Strept. faecium (D); Müller Hinton Agar, 16 to 18 h at 37°C; read-out: MIC

Compound | MIC [µg/mL]
COC1CC(CC2CCC(C)C(C(C)C(=O)O)O2)OC2(OC(C)(C3CCC(C)(C4OC(C5OC(O)(CCl)C(C)CC5C)CC4C)O3)CC2C)C1C (stereo not shown) [Beispiel 2] | 0.391 (≈ 0.526 µM)

tested on: Strept. pyogenes (308 A); test: as above; type: cell-based; conditions: Streptococcus pyogenes
Protocol: as §1, §2, §3

Compound | MIC [µg/mL]
COC1CC(CC2CCC(C)C(C(C)C(=O)O)O2)OC2(OC(C)(C3CCC(C)(C4OC(C5OC(O)(CSC#N)C(C)CC5C)CC4C)O3)CC2C)C1C (stereo not shown) [Beispiel 4] | 0.098 (≈ 0.128 µM)
COC1CC(CC2CCC(C)C(C(C)C(=O)O)O2)OC2(OC(C)(C3CCC(C)(C4OC(C5OC(O)(CO[Si](c6ccccc6)(c6ccccc6)C(C)(C)C)C(C)CC5C)CC4C)O3)CC2C)C1C (stereo not shown) [Beispiel 9] | 0.025 (≈ 0.026 µM)

same assay, conditions: Streptococcus pyogenes; Strept. pyogenes (308 A); Müller Hinton Agar, 16 to 18 h at 37°C; read-out: MIC

Compound | MIC [µg/mL]
COC1CC(CC2CCC(C)C(C(C)C(=O)O)O2)OC2(OC(C)(C3CCC(C)(C4OC(C5OC(O)(CCl)C(C)CC5C)CC4C)O3)CC2C)C1C (stereo not shown) [Beispiel 2] | 0.013 (≈ 0.0175 µM)

tested on: Strept. pyogenes (77 A); test: as above; type: cell-based; conditions: Streptococcus pyogenes
Protocol: as §1, §2, §3

Compound | MIC [µg/mL]
COC1CC(CC2CCC(C)C(C(C)C(=O)O)O2)OC2(OC(C)(C3CCC(C)(C4OC(C5OC(O)(CSC#N)C(C)CC5C)CC4C)O3)CC2C)C1C (stereo not shown) [Beispiel 4] | 0.098 (≈ 0.128 µM)
COC1CC(CC2CCC(C)C(C(C)C(=O)O)O2)OC2(OC(C)(C3CCC(C)(C4OC(C5OC(O)(CO[Si](c6ccccc6)(c6ccccc6)C(C)(C)C)C(C)CC5C)CC4C)O3)CC2C)C1C (stereo not shown) [Beispiel 9] | 0.025 (≈ 0.026 µM)

same assay, conditions: Streptococcus pyogenes; Strept. pyogenes (77 A); Müller Hinton Agar, 16 to 18 h at 37°C; read-out: MIC

Compound | MIC [µg/mL]
COC1CC(CC2CCC(C)C(C(C)C(=O)O)O2)OC2(OC(C)(C3CCC(C)(C4OC(C5OC(O)(CCl)C(C)CC5C)CC4C)O3)CC2C)C1C (stereo not shown) [Beispiel 2] | 0.007 (≈ 0.00942 µM)

tested on: Adeno 5; test: not given; type: cell-based; conditions: HeLa or Vero cells, 72 h CPE, concentration at which about 50 % of the cells survive the infection

Compound | MHK
COC1CC(CC2CCC(C)C(C(C)C(=O)O)O2)OC2(OC(C)(C3CCC(C)(C4OC(C5OC(O)(CO[Si](c6ccccc6)(c6ccccc6)C(C)(C)C)C(C)CC5C)CC4C)O3)CC2C)C1C (stereo not shown) [Beispiel 9] | 0,05 µg/ml

tested on: Vaccina; test: not given; type: cell-based; conditions: HeLa or Vero cells, 72 h CPE, about 50 % of the cells survive

Compound | MHK
COC1CC(CC2CCC(C)C(C(C)C(=O)O)O2)OC2(OC(C)(C3CCC(C)(C4OC(C5OC(O)(CCl)C(C)CC5C)CC4C)O3)CC2C)C1C (stereo not shown) [Beispiel 2] | 0,49 µg/ml
COC1CC(CC2CCC(C)C(C(C)C(=O)O)O2)OC2(OC(C)(C3CCC(C)(C4OC(C5OC(O)(CO[Si](c6ccccc6)(c6ccccc6)C(C)(C)C)C(C)CC5C)CC4C)O3)CC2C)C1C (stereo not shown) [Beispiel 9] | 4,44 µg/ml

tested on: Herpes I; test: not given; type: cell-based; conditions: HeLa or Vero cells, 72 h CPE, about 50 % of the cells survive

Compound | MHK
COC1CC(CC2CCC(C)C(C(C)C(=O)O)O2)OC2(OC(C)(C3CCC(C)(C4OC(C5OC(O)(CCl)C(C)CC5C)CC4C)O3)CC2C)C1C (stereo not shown) [Beispiel 2] | 0,05 µg/ml
COC1CC(CC2CCC(C)C(C(C)C(=O)O)O2)OC2(OC(C)(C3CCC(C)(C4OC(C5OC(O)(CO[Si](c6ccccc6)(c6ccccc6)C(C)(C)C)C(C)CC5C)CC4C)O3)CC2C)C1C (stereo not shown) [Beispiel 9] | 0,05 µg/ml

tested on: Herpes II; test: not given; type: cell-based; conditions: HeLa or Vero cells, 72 h CPE, about 50 % of the cells survive

Compound | MHK
COC1CC(CC2CCC(C)C(C(C)C(=O)O)O2)OC2(OC(C)(C3CCC(C)(C4OC(C5OC(O)(CCl)C(C)CC5C)CC4C)O3)CC2C)C1C (stereo not shown) [Beispiel 2] | < 0,02 µg/ml
COC1CC(CC2CCC(C)C(C(C)C(=O)O)O2)OC2(OC(C)(C3CCC(C)(C4OC(C5OC(O)(CO[Si](c6ccccc6)(c6ccccc6)C(C)(C)C)C(C)CC5C)CC4C)O3)CC2C)C1C (stereo not shown) [Beispiel 9] | 0,05 µg/ml

tested on: Influenza A; test: not given; type: cell-based; conditions: HeLa or Vero cells, 72 h CPE, about 50 % of the cells survive

Compound | MHK
COC1CC(CC2CCC(C)C(C(C)C(=O)O)O2)OC2(OC(C)(C3CCC(C)(C4OC(C5OC(O)(CCl)C(C)CC5C)CC4C)O3)CC2C)C1C (stereo not shown) [Beispiel 2] | 0,05 µg/ml
COC1CC(CC2CCC(C)C(C(C)C(=O)O)O2)OC2(OC(C)(C3CCC(C)(C4OC(C5OC(O)(CO[Si](c6ccccc6)(c6ccccc6)C(C)(C)C)C(C)CC5C)CC4C)O3)CC2C)C1C (stereo not shown) [Beispiel 9] | 0,05 µg/ml

tested on: Paramyxo. III; test: not given; type: cell-based; conditions: HeLa or Vero cells, 72 h CPE, about 50 % of the cells survive

Compound | MHK
COC1CC(CC2CCC(C)C(C(C)C(=O)O)O2)OC2(OC(C)(C3CCC(C)(C4OC(C5OC(O)(CO[Si](c6ccccc6)(c6ccccc6)C(C)(C)C)C(C)CC5C)CC4C)O3)CC2C)C1C (stereo not shown) [Beispiel 9] | 4,44 µg/ml

tested on: Rhinovirus II; test: not given; type: cell-based; conditions: Rhino. II; HeLa or Vero cells, 72 h CPE; about 50 % of the cells survive

Compound | MHK
COC1CC(CC2CCC(C)C(C(C)C(=O)O)O2)OC2(OC(C)(C3CCC(C)(C4OC(C5OC(O)(CCl)C(C)CC5C)CC4C)O3)CC2C)C1C (stereo not shown) [Beispiel 2] | 0,49 µg/ml
COC1CC(CC2CCC(C)C(C(C)C(=O)O)O2)OC2(OC(C)(C3CCC(C)(C4OC(C5OC(O)(CO[Si](c6ccccc6)(c6ccccc6)C(C)(C)C)C(C)CC5C)CC4C)O3)CC2C)C1C (stereo not shown) [Beispiel 9] | 4,44 µg/ml

tested on: HeLa- bzw. Vero-Zellen; test: Maximum tolerated dose (DTM) in cell culture; type: cell-based; conditions: HeLa or Vero cells
Protocol: Die Prüfsubstanzen wurden in Zellkulturmedium (Dulbecco's MEM) gelöst und in einer geometrischen Verdünnungsreihe, Faktor 3, in Standard-Mikrotiterplatten in 100 µl Zellkulturmedium vorgelegt. Anschließend erfolgte die Zugabe von 100 µl einer Suspension von HeLa- bzw. Vero-Zellen in Medium mit 5 % fötalem Kälberserum in einer Zelldichte von 2 x 10⁵ Zellen/ml. Die Ansätze wurden mit 50 µl einer Suspension des jeweiligen Test-Virus infiziert, die so eingestellt war, daß die Zellen innerhalb von 72 h einen cytopathogenen Effekt (CPE) zeigten. Die Auswertung erfolgte durch mikroskopische Begutachtung des Zellrasens und photometrische Messung der Neutralrotaufnahme (Farbtest nach Finter). Als MHK wurde die Konzentration des Präparats angenommen (µg/ml), bei der etwa 50 % der Zellen die Infektion überlebten.
In Spalte 9 ist die DTM (Dosis Tolerata Maxima) in µg/ml angegeben. Tabelle 4

Compound | DTM (Dosis Tolerata Maxima)
COC1CC(CC2CCC(C)C(C(C)C(=O)O)O2)OC2(OC(C)(C3CCC(C)(C4OC(C5OC(O)(CCl)C(C)CC5C)CC4C)O3)CC2C)C1C (stereo not shown) [Beispiel 2] | 1,48 µg/ml
COC1CC(CC2CCC(C)C(C(C)C(=O)O)O2)OC2(OC(C)(C3CCC(C)(C4OC(C5OC(O)(CO[Si](c6ccccc6)(c6ccccc6)C(C)(C)C)C(C)CC5C)CC4C)O3)CC2C)C1C (stereo not shown) [Beispiel 9] | 4,44 µg/ml
